Counter-ions that a name gives are not always drawn.
System: amphetamine-induced symptoms
Assay: antagonism of amphetamine-induced symptoms (cage movement) in rats
Assay type: in vivo
Details: test compound i.p., 1 hr., d-amphetamine sulfate 5 mg./kg. i.p. given 1 hr. after compound, rated one hour after amphetamine
Excerpt: The tranquilizing agents of the present invention are characterized by relief of such schizophrenic manifestations in humans as hallucinations, hostility, suspiciousness, emotional or social withdrawal, anxiety, agitation and tension. Standard procedures of detecting and comparing tranquilizing activity of compounds in this series and for which there is an excellent correlation with human efficacy is the antagonism of amphetamine-induced symptoms in rats test, as taught by A. Weissman, et al., J. Pharmacol. Exp. Ther., 151, 339 (1966) and by Quinton, et al., Nature, 200, 178 (1963).
The effects of the compounds of the present invention on prominent amphetamine-induced symptoms were studied in rats by a rating scale modeled after the one reported by Quinton and Halliwell and by Weissman. Groups of five rats were placed in a covered plastic cage measuring approximately 26 × 42 × 16 cm. After a brief period of acclimation in the cage, the rats in each group were treated intraperitoneally (i.p.) with the test compound. […] On the basis of dose-response data after amphetamine it was possible to determine the effective dose of the compound necessary to antagonize or block the characteristic amphetamine behavior of cage movement for fifty percent of the rats tested (ED50). […]

SMILES	ED50 (effective dose to antagonize or block the characteristic amphetamine behavior of cage movement for fifty percent of the rats tested) [mg/kg]
Fc1ccc(SCCCN2CCc3c(c4cc(F)ccc4n3-c3ccc(F)cc3)C2)cc1 [F F F 0, 8-Fluoro-5-(p-fluorophenyl)-2-[3-(p-fluorophenylthio)propyl]-1,2,3,4-tetrahydro-γ-carboline hydrochloride]	32
[O-][S+](CCCN1CCc2c(c3cc(F)ccc3n2-c2ccc(F)cc2)C1)c1ccc(F)cc1 (centres unmarked) [F F F 1, 8-fluoro-5-(p-fluorophenyl)-2-[3-(p-fluorophenylsulfinyl)propyl]-1,2,3,4-tetrahydro-γ-carboline hydrochloride]	10

From patent US4044137A, “2-(Phenylthiopropyl)-5-aryl-1,2,3,4-tetrahydro-γ-carbolines” (Pfizer Inc., priority 1976, dated 1977)
